Each structure is given as a SMILES string.

The data set is described as follows: dissolution test, USP apparatus II (paddles), efavirenz released in water. The settings on record: 50 mg efavirenz equivalent in capsule with 15% croscarmellose sodium, 37° C., 100 rpm. In kind it is physicochemical. Here is the method: FIG. 9 is a plot of percent efavirenz released in water as a function of time for spray dried product using solvent and solvent/non-solvent methods in accordance with Example #8.
Initial release refers to the percent of drug released after 15 minutes in accordance with a standard dissolution test method. Extent of release refers to the percent of drug released after 240 minutes in accordance with the same standard dissolution test method.
Preferably these limits are obtained within about 120 minutes, more particularly within about 60 minutes and still more particularly within about 30 minutes. Dissolution profiles can be determined using USP apparatus II (paddles) (VK 7010®, Varian Inc.), with a bath temperature of 37° C. and a paddle speed of 100 rpm for 240 minutes.
3. The dissolution properties of both amorphous compositions were tested and compared to the crystalline drug form. An amount equivalent to 50 mg efavirenz was analyzed. Powders were hand-filled into size 1 hard gelatin capsules (Shinogi Qualicaps) with an additional 15% croscarmellose sodium (Ac-Di-Sol®, FMC BioPolymers). USP apparatus II (paddles) (VK 7010®, Varian Inc.) was used, with a bath temperature of 37° C. and a paddle speed of 100 rpm for 240 minutes. Both amorphous efavirenz compositions achieved faster rate of release and higher maximum aqueous concentration than the crystalline form (FIG. 9, Table 1). […]

In the case of `O=C1Nc2ccc(Cl)cc2[C@@](C#CC2CC2)(C(F)(F)F)O1` [crystalline efavirenz, (S)-6-chloro-4-(cyclopropylethynyl)-1,4-dihydro-4-(trifluoromethyl)-2H-3,1-benzoxazin-2-one], the “EFV released 15 min” value (15 min) was determined as 7%. Further, under “240 min”, the “EFV released 240 min” value worked out at 13%.

Values taken from patent US20070026073A1, “Amorphous efavirenz and the production thereof” (priority 2005, published 2007).
